Experimental data taken from patent US10526343B2, “Heterocyclic systems and pharmaceutical applications thereof” (University of Sharjah, priority 2018, dated 2020).

Columns and labels:
MRSA-1 [1] = experiment: Examination of bacterial cell walls by atomic force microscope (AFM); assay type: cell-based, Staphylococcus aureus; conditions: MRSA-1, 25 μg/mL, 4 hours
Description: Atomic force microscopy (AFM) provides three-dimensional images of the surfaces of living microbial cells in real time and in high resolution with minimal sample preparation. Compound 1o was tested against the bacterial strain MRSA-1 and the slides were examined under AFM. Specifically, FIGS. 5A1 and 5B1 show an untreated MRSA-1 strain at scan sizes of 10 μm^2 and […], respectively, and FIGS. 5A2 and 5B2 show a MRSA-1 strain treated with compound 1o at scan sizes of 10 μm^2 and 5 μm^2, respectively. […] Rapid bacterial killing coupled with cell wall damage as evidenced in the AFM images indicate the action of compound 1o on the cell wall, as reported for the known antibiotics like polymyxin, which rapidly breaks the cell membrane of Gram-negative bacteria, causing fast cell death.
Compound 1o was tested against the bacterial strain MRSA-1. Exponentially growing bacterial cells were prepared in Mueller-Hinton broth at a concentration of approximately 10^8 CFU/mL by adjusting the turbidity to 0.5 with a McFarland™ densitometer (DEN-1B, Grant-Bio, UK). […]

MRSA-1 [2] = experiment: Time-kill study; assay type: cell-based, Staphylococcus aureus
Description: Time-kill study: Compound 1o was tested for the time required to kill the bacterial strain MRSA-1. A time-kill assay was performed by the broth micro-dilution method in accordance with the CLSI guidelines. Inoculum suspensions with approximately 5×10^5 CFU/mL of exponentially growing bacterial cells were incubated in each well of a 96-well plate. […] Aliquots of 20 μL were removed from the inoculum culture after timed intervals of incubation (i.e. 0, 30 minutes, 1, 2, 4, 6, 8, and 24 hours), and serial 10-fold dilutions were prepared in 0.85% sodium chloride solution. Then, 10-100 μL of each dilution (as appropriate) were spread on the surface of Mueller-Hinton agar plates and incubated at 37° C. for 24 hours. Plate count technique was used to determine the number of viable cells for each time point. The experiments were performed in triplicate. Meropenem and ciprofloxacin were used as quality control antibiotics.

[3] = system: Bacillus subtilis (environmental isolate); experiment: Cell viability assay (resazurin) screening for antibacterial activity; assay type: cell-based; parameters: key: Positive: A positive result indicates antibacterial activity expressed as growth inhibition; Negative: a negative result indicates no antibacterial activity expressed as bacterial growth at the tested concentration; conditions: single high concentration of 1 mg/mL
[4] = system: Pseudomonas aeruginosa (ATCC 27853); experiment: as above; assay type: cell-based; parameters: key: Positive: A positive result indicates antibacterial activity expressed as growth inhibition; Negative: a negative result indicates no antibacterial activity expressed as bacterial growth at the tested concentration; conditions: single high concentration of 1 mg/mL
[5] = system: Enterococcus faecalis (ATCC 29212); experiment: as above; assay type: cell-based; parameters: key: Positive: A positive result indicates antibacterial activity expressed as growth inhibition; Negative: a negative result indicates no antibacterial activity expressed as bacterial growth at the tested concentration; conditions: single high concentration of 1 mg/mL

SMILES: COC(=O)CC1COc2c(cc3c4c2CCCN4CCC3)-c2c(NC(C)(C)C)n3c(-c4ccc(Br)cc4)c(C)sc3[n+]21 (stereo not drawn) [Compound 1o]
- bacterial cell morphology under AFM (MRSA-1 [1]): Bacterial cell shape distortion and leakage of the intracellular contents
- time of exposure at which killing was achieved (MRSA-1 [2]; 12.5 μg/mL): 6 h
- time of exposure at which killing was achieved (MRSA-1 [2]; 25 μg/mL): 2 h
- time of exposure at which killing was achieved (MRSA-1 [2]; 3.125-6.25 μg/mL): 24 h
- time of exposure to complete elimination of MRSA growth (MRSA-1 [2]; concentration ≥50 μg/mL): ≤ 30 min
- time of exposure at which killing was achieved (MRSA-1 [2]; concentrations between 50-100 μg/mL): 0.5 h
- antibacterial activity, Bacillus subtilis [3]: Positive
- antibacterial activity, Pseudomonas aeruginosa [4]: Negative
- antibacterial activity, Enterococcus faecalis [5]: Positive
